Test results published in patent US20230081426A1, “COMPOUNDS AND METHODS FOR KRAS MODULATION AND INDICATIONS THEREFOR” (Plexxikon Inc., priority 2020, published 2023).

Experiments:
[1] = biological target: T1, G12D-mutant human KRAS (amino acid residues 1-188) (Homo sapiens, UniProt P01116, G12D); experiment: KRAS Binding Disruption Assay (AlphaScreen; biotinylated KRpep-2d analogue or RAF1-RBD), G12D; conditions: KRAS G12D; geometric mean; read-out: KRAS GMean IC50 (uM) MUTATION: G12D
T1 construct: G12D or G12C-mutant human KRAS (amino acid residues 1-188) with FLAG tag; made in house; host or cells: E. coli
Summary of the method: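 Compounds are titrated against 5-20 nM mutant KRAS and 5-20 nM of either a biotinylated KRpep-2d analogue or RAF1-RBD, incubated 1 h at 25° C. Disruption is detected as reduced Alpha signal after 1 h with donor and acceptor beads at 10 μg/mL.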

[2] = biological target: T2, G12V-mutant human KRAS (amino acid residues 1-188) (Homo sapiens, UniProt P01116, G12V); experiment: KRAS Binding Competition Assay (AlphaScreen; biotinylated KRpep-2d analogue), G12V; conditions: geometric mean, read-out: KRAS GMean IC50 (uM) MUTATION: G12V
T2 construct: G12V-mutant human KRAS (amino acid residues 1-188) with FLAG tag was purified from E. coli; made in house; host or cells: E. coli

Row | IC50 [1] [µM] | IC50 [2] [µM] | SMILES
1 | 10 to 100 | 10 to 100 | CN1CCC[C@H]1COc1nc(N2[C@@H]3CC[C@H]2CN(C(=O)NCC(N)=O)C3)c2ccc(-c3cc(O)cc4ccccc34)cc2n1 [P-0211, (1R,5S)-N-(2-amino-2-oxoethyl)-8-(7-(3-hydroxynaphthalen-1-yl)-2-(((S)-1-methylpyrrolidin-2-yl)methoxy)quinazolin-4-yl)-3,8-diazabicyclo[3.2.1]octane-3-carboxamide]
2 | 10 to 100 | 10 to 100 | CN1CCC[C@H]1COc1nc(N2[C@@H]3CC[C@H]2CN(C(=O)NC2COCC2(C)C)C3)c2ccc(-c3cc(O)cc4ccccc34)cc2n1 (stereo partly drawn) [P-0212, (1R,5S)-N-(4,4-dimethyltetrahydrofuran-3-yl)-8-(7-(3-hydroxynaphthalen-1-yl)-2-(((S)-1-methylpyrrolidin-2-yl)methoxy)quinazolin-4-yl)-3,8-diazabicyclo[3.2.1]octane-3-carboxamide]
3 | 10 to 100 | 10 to 100 | CN1CCC[C@H]1COc1nc(N2[C@@H]3CC[C@H]2CN(C(=O)NO)C3)c2ccc(-c3cc(O)cc4ccccc34)cc2n1 [P-0213, (1R,5S)-N-hydroxy-8-(7-(3-hydroxynaphthalen-1-yl)-2-(((S)-1-methylpyrrolidin-2-yl)methoxy)quinazolin-4-yl)-3,8-diazabicyclo[3.2.1]octane-3-carboxamide]
4 | 10 to 100 | 10 to 100 | CONC(=O)N1C[C@H]2CC[C@@H](C1)N2c1nc(OC[C@@H]2CCCN2C)nc2cc(-c3cc(O)cc4ccccc34)ccc12 [P-0214, (1R,5S)-8-(7-(3-hydroxynaphthalen-1-yl)-2-(((S)-1-methylpyrrolidin-2-yl)methoxy)quinazolin-4-yl)-N-methoxy-3,8-diazabicyclo[3.2.1]octane-3-carboxamide]
5 | 10 to 100 | 100 to 1000 | CCN1CCC(NC(=O)N2C[C@H]3CC[C@@H](C2)N3c2nc(OC[C@@H]3CCCN3C)nc3cc(-c4cc(O)cc5ccccc45)ccc23)C1 (stereo partly drawn) [P-0215, (1R,5S)-N-(1-ethylpyrrolidin-3-yl)-8-(7-(3-hydroxynaphthalen-1-yl)-2-(((S)-1-methylpyrrolidin-2-yl)methoxy)quinazolin-4-yl)-3,8-diazabicyclo[3.2.1]octane-3-carboxamide]
6 | 10 to 100 | 10 to 100 | CN1CCC[C@H]1COc1nc(N2[C@@H]3CC[C@H]2CN(C(=O)NCc2ccccn2)C3)c2ccc(-c3cc(O)cc4ccccc34)cc2n1 [P-0216, (1R,5S)-8-(7-(3-hydroxynaphthalen-1-yl)-2-(((S)-1-methylpyrrolidin-2-yl)methoxy)quinazolin-4-yl)-N-(pyridin-2-ylmethyl)-3,8-diazabicyclo[3.2.1]octane-3-carboxamide]
7 | 10 to 100 | 10 to 100 | CN1CCC[C@H]1COc1nc(N2[C@@H]3CC[C@H]2CN(C(=O)C(N)=O)C3)c2ccc(-c3cc(O)cc4ccccc34)cc2n1 [P-0217, 2-((1R,5S)-8-(7-(3-hydroxynaphthalen-1-yl)-2-(((S)-1-methylpyrrolidin-2-yl)methoxy)quinazolin-4-yl)-3,8-diazabicyclo[3.2.1]octan-3-yl)-2-oxoacetamide]
8 | 10 to 100 | 10 to 100 | CN1CCC[C@H]1COc1nc(N2[C@@H]3CC[C@H]2CN(C(=O)CCC(N)=O)C3)c2ccc(-c3cc(O)cc4ccccc34)cc2n1 [P-0218, 4-((1R,5S)-8-(7-(3-hydroxynaphthalen-1-yl)-2-(((S)-1-methylpyrrolidin-2-yl)methoxy)quinazolin-4-yl)-3,8-diazabicyclo[3.2.1]octan-3-yl)-4-oxobutanamide]
9 | 10 to 100 | 10 to 100 | CN1CCC[C@H]1COc1nc(N2[C@@H]3CC[C@H]2CN(C(=O)C(O)CO)C3)c2ccc(-c3cc(O)cc4ccccc34)cc2n1 (stereo partly drawn) [P-0219, 2,3-dihydroxy-1-((1R,5S)-8-(7-(3-hydroxynaphthalen-1-yl)-2-(((S)-1-methylpyrrolidin-2-yl)methoxy)quinazolin-4-yl)-3,8-diazabicyclo[3.2.1]octan-3-yl)propan-1-one]
10 | 10 to 100 | 100 to 1000 | C[C@@H](O)C(=O)N1C[C@H]2CC[C@@H](C1)N2c1nc(OC[C@@H]2CCCN2C)nc2cc(-c3cc(O)cc4ccccc34)ccc12 [P-0220, (R)-2-hydroxy-1-((1R,5S)-8-(7-(3-hydroxynaphthalen-1-yl)-2-(((S)-1-methylpyrrolidin-2-yl)methoxy)quinazolin-4-yl)-3,8-diazabicyclo[3.2.1]octan-3-yl)propan-1-one]

Continued, molecule first:

Row | SMILES | IC50 [1] [µM] | IC50 [2] [µM]
11 | CN(C)C(=O)CCc1nc(N2[C@@H]3CC[C@H]2CNC3)c2ccc(-c3cc(O)cc4ccccc34)cc2n1 [P-0199, 3-(4-((1R,5S)-3,8-diazabicyclo[3.2.1]octan-8-yl)-7-(3-hydroxynaphthalen-1-yl)quinazolin-2-yl)-N,N-dimethylpropanamide] | 10 to 100 | 10 to 100
12 | Oc1cc(-c2ccc3c(N4[C@@H]5CC[C@H]4CNC5)nc(CC4CCNCC4)nc3c2)c2ccccc2c1 [P-0200, 4-(4-((1R,5S)-3,8-diazabicyclo[3.2.1]octan-8-yl)-2-(piperidin-4-ylmethyl)quinazolin-7-yl)naphthalen-2-ol] | 0.0001 to 10 | 10 to 100
13 | CN1CCC(Cc2nc(N3[C@@H]4CC[C@H]3CNC4)c3ccc(-c4cc(O)cc5ccccc45)cc3n2)CC1 [P-0201, 4-(4-((1R,5S)-3,8-diazabicyclo[3.2.1]octan-8-yl)-2-((1-methylpiperidin-4-yl)methyl)quinazolin-7-yl)naphthalen-2-ol] | 0.0001 to 10 | 10 to 100
14 | CN1CCC[C@H]1COc1nc(N2[C@@H]3CC[C@H]2CN(C(=O)[C@@H]2C[C@@H](O)CN2)C3)c2ccc(-c3cc(O)cc4ccccc34)cc2n1 [P-0202, ((1R,5S)-8-(7-(3-hydroxynaphthalen-1-yl)-2-(((S)-1-methylpyrrolidin-2-yl)methoxy)quinazolin-4-yl)-3,8-diazabicyclo[3.2.1]octan-3-yl)((2S,4R)-4-hydroxypyrrolidin-2-yl)methanone] | 0.0001 to 10 | 10 to 100
15 | CN1CCN(CCCS(=O)(=O)N2[C@@H]3CC[C@H]2CN(c2nc(OCC45CCCN4CCC5)nc4c(F)c(-c5cc(O)cc6ccccc56)ccc24)C3)CC1 [P-0203, 4-(8-fluoro-4-((1R,5S)-8-((3-(4-methylpiperazin-1-yl)propyl)sulfonyl)-3,8-diazabicyclo[3.2.1]octan-3-yl)-2-((tetrahydro-1H-pyrrolizin-7a(5H)-yl)methoxy)quinazolin-7-yl)naphthalen-2-ol] | 0.0001 to 10 | 0.0001 to 10
16 | CN1CCC[C@H]1COc1nc(N2[C@@H]3CC[C@H]2CN(C(=O)[C@@H]2C[C@@H](O)CN2)C3)c2ccc(-c3cc(O)cc4ccccc34)cc2n1 [P-0204, ((1R,5S)-8-(7-(3-hydroxynaphthalen-1-yl)-2-(((S)-1-methylpyrrolidin-2-yl)methoxy)quinazolin-4-yl)-3,8-diazabicyclo[3.2.1]octan-3-yl)((2S,4R)-4-hydroxypyrrolidin-2-yl)methanone] | 10 to 100 | 10 to 100
17 | CN1CCC[C@H]1COc1nc(N2[C@@H]3CC[C@H]2CN(C(=O)[C@H]2CCCN2)C3)c2ccc(-c3cc(O)cc4ccccc34)cc2n1 [P-0205, 4-((1R,5S)-3-(D-prolyl)-3,8-diazabicyclo[3.2.1]octan-8-yl)-7-(3-hydroxynaphthalen-1-yl)-2-(((S)-1-methylpyrrolidin-2-yl)methoxy)quinazoline] | 10 to 100 | 100 to 1000
18 | CNCC(=O)N1C[C@H]2CC[C@@H](C1)N2c1nc(OC[C@@H]2CCCN2C)nc2cc(-c3cc(O)cc4ccccc34)ccc12 [P-0206, 1-((1R,5S)-8-(7-(3-hydroxynaphthalen-1-yl)-2-(((S)-1-methylpyrrolidin-2-yl)methoxy)quinazolin-4-yl)-3,8-diazabicyclo[3.2.1]octan-3-yl)-2-(methylamino)ethan-1-one] | 10 to 100 | 10 to 100
19 | CN1CCC[C@H]1COc1nc(N2[C@@H]3CC[C@H]2CN(C(=O)Cn2ccnc2)C3)c2ccc(-c3cc(O)cc4ccccc34)cc2n1 [P-0207, 1-((1R,5S)-8-(7-(3-hydroxynaphthalen-1-yl)-2-(((S)-1-methylpyrrolidin-2-yl)methoxy)quinazolin-4-yl)-3,8-diazabicyclo[3.2.1]octan-3-yl)-2-(1H-imidazol-1-yl)ethan-1-one] | 10 to 100 | 10 to 100
20 | CN1CCC[C@H]1COc1nc(N2[C@@H]3CC[C@H]2CN(C(=O)NC2CN4CCC2CC4)C3)c2ccc(-c3cc(O)cc4ccccc34)cc2n1 (stereo partly drawn) [P-0208, (1R,5S)-8-(7-(3-hydroxynaphthalen-1-yl)-2-(((S)-1-methylpyrrolidin-2-yl)methoxy)quinazolin-4-yl)-N-(quinuclidin-3-yl)-3,8-diazabicyclo[3.2.1]octane-3-carboxamide] | 0.0001 to 10 | 10 to 100
21 | CN1CCN(CCNC(=O)N2C[C@H]3CC[C@@H](C2)N3c2nc(OC[C@@H]3CCCN3C)nc3cc(-c4cc(O)cc5ccccc45)ccc23)CC1 [P-0209, (1R,5S)-8-(7-(3-hydroxynaphthalen-1-yl)-2-(((S)-1-methylpyrrolidin-2-yl)methoxy)quinazolin-4-yl)-N-(2-(4-methylpiperazin-1-yl)ethyl)-3,8-diazabicyclo[3.2.1]octane-3-carboxamide] | 10 to 100 | 10 to 100
22 | CN1CCC[C@H]1COc1nc(N2[C@@H]3CC[C@H]2CN(C(=O)Nc2cccnc2)C3)c2ccc(-c3cc(O)cc4ccccc34)cc2n1 [P-0210, (1R,5S)-8-(7-(3-hydroxynaphthalen-1-yl)-2-(((S)-1-methylpyrrolidin-2-yl)methoxy)quinazolin-4-yl)-N-(pyridin-3-yl)-3,8-diazabicyclo[3.2.1]octane-3-carboxamide] | 10 to 100 | 10 to 100
